| SMILES | melting point |
| --- | --- |
| O=C(O)CNC(=O)c1ccc([N+](=O)[O-])cc1[N+](=O)[O-] | 188 to 190 °C |
| O=C(Nc1ccccn1)C(CC1CCCC1)c1ccc(Cl)c([N+](=O)[O-])c1 (stereo not drawn) | 48 to 52 °C |
| Clc1cccc2c(CN3CC=C(/C=C/c4ccccc4)CC3)n[nH]c12 | 223 to 224 °C |
| CC(C)(C)c1cc(C(=S)SC(C)(C)c2ccccc2)cc(C(C)(C)C)c1O | 100 to 104 °C |
| CC(C)(C)OC(=O)N1CC(c2ccc(N)nc2)C1 | 103 to 104 °C |
| CCC(=O)c1cc(Cl)c(OC)cc1OC | 115 °C |
| C#CCCCOc1c(C)cc(C(N)=O)cc1C | 81 to 84 °C |
| C/C(=C(\C#N)C(N)=S)N1CCc2ccccc2C1 | 244 to 245 °C |
| Cc1c(C(=O)NNC(C)(C)C)ccc2c1CCCO2 | 146 to 148 °C |
| O=C1NC(=O)c2c(-c3ccccc3[N+](=O)[O-])ccc(-c3ccccc3)c21 | 224 to 226 °C |
| COc1ccc(C#CC(C)N(O)C(N)=O)cc1 (stereo not drawn) | 144 to 146 °C |
| Cc1nc2c(N)nc3cccnc3c2n1CC(C)C | 228 to 230 °C |
| O=C1c2ccccc2S(=O)(=O)N1COc1ccc([N+](=O)[O-])cc1 | 162 to 164 °C |
| COC(=O)n1cc2c(c1)-c1ccc(Cl)cc1C(c1ccccc1Cl)=[N+]([O-])C2 | 224 to 226 °C |
| Cc1c2n(c3ccccc13)CC(C)(C)C2O (stereo not drawn) | 82 to 85 °C |
| CCN(C(=O)c1ccc(Cn2cnc3ccccc32)cc1)C1CCCCC1 | 118 to 119 °C |
| COc1cc2c(cc1Nc1ncc(C(F)(F)F)c(Nc3ccc(N4CCOCC4)cc3OC)n1)N(C)C(=O)OCC2 | 221 to 223 °C |
| CCOC(=O)C1=C(COCc2nnc(CN(C)C)s2)NC(C)=C(C(=O)OC)C1c1cccc(Cl)c1Cl (stereo not drawn) | 168 to 170 °C |
| Cn1c(C(F)(F)F)cc(=O)n(-c2cc(OCCNC=O)c(Cl)cc2F)c1=O | 128 to 131 °C |
| O=C(Nc1cccc(C(F)(F)F)c1)N1CCCCc2cc(Oc3cc(Cl)ncn3)ccc21 | 120 °C |
| CCc1ccc2c(c1)C=Cc1sc(C)nc1C2c1cn(Cc2cccc(C(=O)O)c2)c(=O)[nH]c1=O (stereo not drawn) | 159 to 161 °C |
| COC(=O)c1c(Cc2ccc(S(=O)(=O)N3CCN(C)CC3)cc2)c(=O)c2ccccc2n1-c1ccccc1 | 210 to 212 °C |
| Cc1cc(C(F)(F)F)cnc1O | 141 to 143 °C |
| CC(C)(C)OC(=O)c1cc([N+](=O)[O-])cc([N+](=O)[O-])c1N(CCO)CCCl | 106 to 107 °C |
| C=CCNc1nc(NC(=O)C(C)(C)C)c2scc(C)c2n1 | 88 to 89 °C |
| CC(=O)OCC(=O)Nc1cccc(N2CCCCC2)c1C#N | 90 to 92 °C |

Second part, the molecule after the results:

| melting point | SMILES |
| --- | --- |
| 207 to 208 °C | Cc1noc(NC(=O)N2CCN(c3ccnc(-c4ccc(F)cc4F)n3)CC2)c1C |
| 109 to 110 °C | CCOC(=O)c1nc(SC)[nH]c(=O)c1OCc1ccccc1 |
| 61 to 62 °C | COc1cc(OC)nc(-c2ccc(C)cc2)n1 |
| 203 to 204 °C | CC(C)c1ccc2c(c1)OCc1ccc(C(=O)O)cc1C2=O |
| 126 °C | CCCCCc1c(C(C)C)cc(C(C)C)c(C(C)O)c1-c1ccc(F)cc1 (stereo not drawn) |
| 273 to 274 °C | CS(=O)(=O)c1ccc(-c2sc(Nc3ccc(C#N)cc3)nc2-c2ccc(F)cc2)cc1 |
| 167 to 169 °C | CC(C(=O)c1ncn2c1c(=O)n(C(C)C)c1ccccc12)C(=O)C1CC1 (stereo not drawn) |
| 133 °C | CCCCCCCCSc1nc(Nc2cc(C)c(O)c(C(C)(C)C)c2)nc(NC2CC(C)(C)NC(C)(C)C2)n1 |
| 152 to 154 °C | CCC(CC)Nc1cc(C)nc(Oc2c(C)cc(C)cc2C)c1NC(=O)CCl |
| 149 to 150 °C | c1ccc2sc(-c3nc(COc4ccc(CCCn5ccnc5)cc4)co3)cc2c1 |
| 138 to 140 °C | COc1ccc(Nc2nc(NC(C)C)nc(Oc3ccccc3C#CC(C)(C)O)n2)cc1Cl |
| 133 to 135 °C | Cc1cc(C(Cc2ccc(CCCc3nc(-c4ccccc4)oc3C)cc2)C(=O)O)on1 (stereo not drawn) |

Reference: a melting point compilation (Tetko et al.; mined from patent text by program, amines drawn as free bases though some values may be those of a salt)
